From patent US20070020306A1, “Endovascular implant with an at least sectional active coating made of radjadone and/or a ratjadone derivative” (priority 2003, published 2007)

System: aortal, smooth vascular muscle cells
Assay: inhibition of the growth of aortal, smooth vascular muscle cells
Assay type: cell-based, human
Conditions: pharmacologically active even in the smallest concentrations of active substance
Method: This effect already occurs starting at 1 to 100 nM, preferably 5 to 50 nM, so that already extremely low local concentrations are sufficient for an effective inhibition of restenosis in the region of an implant. This virtually precludes broader side-effects.

C/C=C/[C@@H]1O[C@H]([C@H](O)/C=C/C=C(\C)C[C@@H](C)/C=C(C)\C=C\[C@H]2CC=CC(=O)O2)C[C@@H](O)[C@@H]1C [Ratjadone]
potency in first experiments: particularly potent
